Data set [1] concerns exsheathed third-stage larvae (xL3s) of Haemonchus contortus. In words: Primary screen, H. contortus larval development and phenotype (microscopy). The method, then: An established high-throughput phenotypic screening assay was used to test the anthelmintic activity of compounds on H. contortus xL3s. Compounds were assessed for motility inhibition at a concentration of 20 µM in LB*. […] A solution of LB* + 1% (v/v) DMSO was used as a negative control. Test compounds were distributed amongst one flat-bottom, 384-well microplate (cat no. 3860; Corning, Corning, NY, USA). Eighty xL3s of H. contortus in 20 µl of LB* were added to each well to give a final volume of 40 µl. The plate was then placed in a CO2 incubator (10% [v/v] CO2, 38 °C, > 90% humidity). At 90 h, worm activity was captured using a WMicroTracker ONE unit (Phylumtech, Sunchales, Santa Fe, Argentina). Over a period of 15 min, disturbance of an infrared beam in individual wells was recorded as a worm ‘activity count’. Activity counts were then normalised to the positive and negative controls using the GraphPad Prism program (v.9.1.0 GraphPad Software, San Diego, CA, USA). The screening plate was then returned to the incubator (10% [v/v] CO2, 38 °C, > 90% humidity) for an additional 72 h. At 168 h, worms were fixed with 40 µl of Lugol solution (Sigma-Aldrich, St. Louis, MO, USA). Compounds were then assessed (microscopically) for inhibition of larval development and/or induction of a non-wild-type phenotype in H. contortus worms. […] The performance of the assay was monitored using the Z′-factor [58] calculated using data for the negative (DMSO) and positive (M-666) control compounds on individual plates.

In the next data set the test system is H. contortus xL3s. In words: H. contortus dose-response assay, xL3 motility. On the set-up: species or system Haemonchus contortus. To be noted: xL3s, 90 h of incubation; for IC50: read-out: IC50, H. contortus larval motility inhibition. How it is done:
The dose–response assay for H. contortus followed a well-established protocol; it was employed to evaluate the potency of hit compounds against this nematode. Test compounds were assessed individually for an effect on the motility of xL3s (10-point, twofold serial dilution in LB*, 40–0.16 μM). One compound, monepantel (prepared in the same manner as the test compounds), was used as a positive control. A solution of LB* was used as a negative control. The test and positive-control compounds were arrayed in triplicate across individual flat-bottom 96-well microplates, with six wells on each plate containing the negative control. Three hundred xL3s of H. contortus in 50 μl of LB* were added to each well to give a final volume of 100 μl. Plates were then placed in a CO2 incubator (10% [v/v] CO2, 38 °C, > 90% humidity). […] Over a period of 15 min, disturbance of an infrared beam in individual wells was recorded as a worm activity count. Raw activity counts for each well were normalised to the negative controls. The compound concentrations were log10-transformed and fitted using a variable-slope four-parameter equation, using the ordinary least squares fit model, employing GraphPad Prism (v.9.1.0). Larval development was established at 168 h of incubation with compound, as described previously. The development inhibition and phenotypes of larvae were examined microscopically. A one-way analysis of variance (ANOVA) with a Tukey multiple comparison test or an unpaired t-test was used to establish statistically significant differences in larval motility or development.

The test system of the next data set is C. elegans young adults. Put plainly: C. elegans dose-response assay, motility. Also noted: species or system Caenorhabditis elegans. To be noted: 40 h of incubation. How it is done:
The dose–response assay for C. elegans followed a well-established protocol and was employed to evaluate the potency of hit compounds against this nematode. Test and positive-control compounds as well as negative controls were prepared in 96-well microplates (cf.). One hundred C. elegans in 50 μl of LB* were added to each well to give a final volume of 100 μl. Plates were then placed in an incubator at 20 °C for 40 h. At 40 h, worm activity was captured using a WMicroTracker ONE unit. Raw activity counts for each well were normalised to the negative controls. The compound concentrations were log10-transformed and fitted using a variable-slope four-parameter equation, using the ordinary least squares fit model, employing GraphPad Prism (v.9.1.0). A one-way ANOVA with a Tukey multiple comparison test or an unpaired t-test was used to establish statistically significant differences in larval motility.

Another data set concerns H. contortus larvae. Put plainly: H. contortus dose-response assay, larval development. On the set-up: species or system Haemonchus contortus. The conditions noted are these: 168 h of incubation, read-out: IC50, inhibition of H. contortus larval development. The method, then:
The dose–response assay for H. contortus followed a well-established protocol; it was employed to evaluate the potency of hit compounds against this nematode. Test compounds were assessed individually for an effect on the motility of xL3s (10-point, twofold serial dilution in LB*, 40–0.16 μM). One compound, monepantel (prepared in the same manner as the test compounds), was used as a positive control. A solution of LB* was used as a negative control. The test and positive-control compounds were arrayed in triplicate across individual flat-bottom 96-well microplates, with six wells on each plate containing the negative control. Three hundred xL3s of H. contortus in 50 μl of LB* were added to each well to give a final volume of 100 μl. Plates were then placed in a CO2 incubator (10% [v/v] CO2, 38 °C, > 90% humidity). After 168 h of incubation, worm activity was captured using a WMicroTracker ONE unit. Over a period of 15 min, disturbance of an infrared beam in individual wells was recorded as a worm activity count. Raw activity counts for each well were normalised to the negative controls. The compound concentrations were log10-transformed and fitted using a variable-slope four-parameter equation, using the ordinary least squares fit model, employing GraphPad Prism (v.9.1.0). Larval development was established at 168 h of incubation with compound, as described previously. The development inhibition and phenotypes of larvae were examined microscopically. A one-way analysis of variance (ANOVA) with a Tukey multiple comparison test or an unpaired t-test was used to establish statistically significant differences in larval motility or development.

The test system of data set [2] is adult females of H. contortus. Put plainly: Motility of H. contortus adult females (video scoring). To be noted: 40 μM. Also noted: species or system Haemonchus contortus. The method, then:
The activity of two test compounds was assessed on adult female specimens of H. contortus in an established assay. The compound was added in triplicate to the wells of a 24-well plate (Corning, USA) at a concentration of 40 μM in 500 μl of RPMI*. Two positive-control compounds, monepantel and moxidectin, and a negative control containing 1% (v/v) DMSO only were included in triplicate on the same plate. Three adult females were added to each of the triplicate wells containing either the test compound or the controls and placed in a CO2 incubator (10% [v/v] CO2, 38 °C, > 90% relative humidity) for 24 h. A video recording (30 s) of each well was taken at 3 h, 6 h, 12 h and 24 h during the total incubation period to assess the reduction in worm motility, which was scored as 3 (‘good’), 2 (‘low’), 1 (‘very low’) or 0 (‘no movement’; cf.). For each test or control compound, the motility scores for each of the triplicate wells were calculated, normalised with reference to the negative control (100% motility) and recorded as a percentage. A two-way ANOVA with a Tukey multiple comparison test was used to establish statistically significant differences in worm motility.

Data set [3] has as its system rat hepatoma (FAO cell line) cells. To be noted: cited from earlier work.
The mark [4] stands for this setting: H. contortus larvae; 20 µM; 168 h.
[5] abbreviates: Haemonchus contortus, 168 h, H. contortus, 20 µM, read-out: Larval development inhibition, %.

Consider 10 compounds from paper PMC10938758, “A phenotypic screen of the Global Health Priority Box identifies an insecticide with anthelmintic activity” (Parasites & Vectors, 2024).

Like-named read-outs stand apart in the source and are kept apart here.

Turning to `C=C(C)[C@H]1Cc2c(ccc3c2O[C@@H]2COc4cc(OC)c(OC)cc4[C@@H]2C3=O)O1` [MMV002519, rotenone], in data set [1] (setting [4]), the Abnormal phenotype result is on record as “Str” and the “Induction of an abnormal phenotype (in words)” value (“Induction” for short) is “induced an abnormal phenotype”. Moreover, the inhibition at 20 µM in data set [1] (Haemonchus contortus, 168 h, read-out: Larval development inhibition; %) is 100%.

In the case of `CO[C@H]1C[C@H](O[C@@H]2/C(C)=C/C[C@@H]3C[C@@H](C[C@]4(CC[C@H](C)[C@@H](C5CCCCC5)O4)O3)OC(=O)[C@@H]3C=C(C)/C(=N/O)[C@H]4OC/C(=C\C=C\[C@@H]2C)[C@]43O)O[C@@H](C)[C@@H]1O` [MMV002231, selamectin], in data set [1] (setting [4]), the Abnormal phenotype result is “Cur”. In addition, the inhibition at 20 µM in data set [1] (setting [5]) is ≥ 90%.

With abamectin [MMV1577454], in data set [1] (setting [4]), the Abnormal phenotype entry was “Str”.

As to `CCOCn1c(-c2ccc(Cl)cc2)c(C#N)c(Br)c1C(F)(F)F` [MMV1577458, chlorfenapyr], in data set [1] (setting [4]), the Abnormal phenotype result is given as “Cur” and the “Induction” value was “induced an abnormal phenotype”. Also, in data set [1] (setting [5]), the inhibition at 20 µM amounted to 100%.

Turning to `CO/N=C1\C[C@]2(C[C@@H]3C[C@@H](C/C=C(\C)C[C@@H](C)/C=C/C=C4\CO[C@@H]5[C@H](O)C(C)=C[C@@H](C(=O)O3)[C@]45O)O2)O[C@H](/C(C)=C/C(C)C)[C@H]1C` [Moxidectin, moxidectin], in data set [1] (H. contortus; 20 µM; 168 h), the “Larval development inhibition; %” value stood at 100%.

For the compound `O=C(Nc1ccc(Cl)c(C(F)(F)F)c1)Nc1ccc(Cl)c(C(F)(F)F)c1` [MMV027339], the IC50 in the data set on H. contortus xL3s was > 40000 nM. For the same compound, the “Induction” value in data set [1] (setting [4]) is on record as “did not inhibit development or induce an abnormal phenotype”.

On to `C[C@](C#N)(COc1cc(C#N)ccc1C(F)(F)F)NC(=O)c1ccc(SC(F)(F)F)cc1` [Monepantel, monepantel], for which the IC50 was 330 ± 120 nM in the data set with H. contortus xL3s (Haemonchus contortus); 30 ± 10 nM in the data set on C. elegans young adults (Caenorhabditis elegans, read-out: IC50, C. elegans young adult motility); 260 ± 30 nM in the data set with H. contortus larvae (Haemonchus contortus). Further, the “Maximum motility inhibition (MMI), H. contortus larvae” value with H. contortus xL3s worked out at 95%. Moreover, in the data set on C. elegans young adults, the “Maximum motility inhibition (MMI), C. elegans” value is given as 95%. The “Reduction of motility of adult females of H. contortus” value was ~ 0% in data set [2] (3 h), ~23% in data set [2] (6 h), ~66% in data set [2] (12 h) and ~100% in data set [2] (24 h). Further, the Abnormal phenotype result in data set [1] (setting [4]) is “Coi”. The inhibition at 20 µM in data set [1] (setting [5]) was 100%.

For `COc1cc(/C=N/c2c(SC(F)(F)F)c(C#N)nn2-c2c(Cl)cc(C(F)(F)F)cc2Cl)ccc1O` [MMV1794214], in the data set with H. contortus xL3s, the “Maximum motility inhibition (MMI), H. contortus larvae” value is recorded as 70%. Also, the results for the IC50 with H. contortus xL3s and in the data set on H. contortus larvae were 4500 ± 1100 nM and > 40000 nM, respectively. Further, the “Reduction of motility of adult females of H. contortus” value in data set [2] (3 h) is listed as ~ 0%; in data set [2] (6 h), ~ 0%; in data set [2] (12 h), ~23%; in data set [2] (24 h) it was ~15%. The “Induction” value in data set [1] (setting [4]) was “did not inhibit development or induce an abnormal phenotype”.

Take `CCc1nn(C)c(C(=O)NCc2ccc(Oc3ccc(C)cc3)cc2)c1Cl` [MMV688934, tolfenpyrad]: the “Respiration in FAO cells” value in data set [3] was “inhibit respiration”. Besides, in data set [1] (setting [4]), the Abnormal phenotype entry is listed as “Str” and the “Induction” value is “induced an abnormal phenotype”. The inhibition at 20 µM in data set [1] (Haemonchus contortus; H. contortus; 20 µM; 168 h; read-out: Larval development inhibition; %) is 100%.

Regarding `CO/N=C1\C[C@]2(C[C@@H]3C[C@@H](C/C=C(\C)C[C@@H](C)/C=C/C=C4\CO[C@@H]5[C@H](O)C(C)=C[C@@H](C(=O)O3)[C@]45O)O2)O[C@H](/C(C)=C/C(C)C)[C@H]1C` [MMV1633828, moxidectin], the inhibition at 20 µM in data set [1] (setting [5]) was ≥ 90%.

What is called inhibition is the percentage by which the read-out fell short of the control. The IC50 is the concentration that gives 50% inhibition.
